Experimental data from the supplement of paper PMC5579334.

Key:
HS-PSS [1] = assay: relative IC50 (inflection point of fitted dose-response curve, CellTox-Green cytotoxicity, 72 h; top asymptote may be below 50%); higher = less potent
Outline: (§1)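 For 72 h at 37 °C, MPNST cell lines and primary human Schwann cells were exposed in 384-well plates to five 10-fold compound dilutions. CellTox-Green, added before seeding at a final 1:1000 dilution, gave fluorescence from DNA released by disrupted cells. Signals were scaled to vehicle and positive-control wells, cultures failing plate quality control were left out, and four-parameter logistic fits were applied. Relative IC50 and drug sensitivity score were derived from the fits, with IC50 censored at the top concentration.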

HSC1 [2] = assay: as above
Outline: as §1

HSC2 [3] = assay: as above
Outline: as §1

S1507-2 [4] = assay: as above
Outline: as §1

ST8814 [5] = assay: as above
Outline: as §1

STS26T [6] = assay: as above
Outline: as §1

HS-PSS [7] = assay: relative IC50 (inflection point of fitted dose-response curve, CellTiter-Glo viability, 72 h; top asymptote may be below 50% inhibition); higher = less potent
Outline: (§2)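 After seeding 750–1000 cells per well of MPNST cell lines or primary human Schwann cells into 384-well plates preprinted with each compound at five concentrations in 10-fold steps, plates were kept 72 h at 37 °C, 5% CO2. Viability was read as CellTiter-Glo ATP luminescence relative to vehicle and positive-control wells, with duplicates averaged where present. The data were fitted with four-parameter logistic models. Drug sensitivity score and relative IC50, censored at the top concentration, derive from the fits, and percent inhibition refers to the top concentration.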

HS-Sch-2 = assay: as above
Outline: as §2

HSC1 [8] = assay: as above
Outline: as §2

HSC2 [9] = assay: as above
Outline: as §2

S1507-2 [10] = assay: as above
Outline: as §2

S462 = assay: as above
Outline: as §2

ST8814 [11] = assay: as above
Outline: as §2

STS26T [12] = assay: as above
Outline: as §2

YST-1 = assay: as above
Outline: as §2

Row | SMILES | relative IC50 (HS-PSS [1]) | relative IC50 (HSC1 [2]) | relative IC50 (HSC2 [3]) | relative IC50 (S1507-2 [4]) | relative IC50 (ST8814 [5]) | relative IC50 (STS26T [6]) | relative IC50 (HS-PSS [7]) | relative IC50 (HS-Sch-2) | relative IC50 (HSC1 [8]) | relative IC50 (HSC2 [9]) | relative IC50 (S1507-2 [10]) | relative IC50 (S462) | relative IC50 (ST8814 [11]) | relative IC50 (STS26T [12]) | relative IC50 (YST-1)
1 | CCC1(c2ccc(N)cc2)CCC(=O)NC1=O (stereo not given) [Aminoglutethimide] | > 10 µM | > 10 µM | > 10 µM | > 10 µM | > 10 µM | > 10 µM | > 10 µM | > 10 µM | > 10 µM | > 10 µM | > 10 µM | > 10 µM | > 10 µM | > 10 µM | > 10 µM
2 | CC(C)(C#N)c1cc(Cn2cncn2)cc(C(C)(C)C#N)c1 [Anastrozole] | > 10 µM | > 10 µM | > 10 µM | > 10 µM | > 10 µM | > 10 µM | > 10 µM | > 10 µM | > 10 µM | > 10 µM | > 10 µM | > 10 µM | > 10 µM | > 10 µM | > 10 µM
3 | COc1c(C)cnc(Cn2cnc3c(Cl)nc(N)nc32)c1C [BIIB021] | 0.396 µM | 0.217 µM | 0.231 µM | 0.484 µM | 0.587 µM | 0.316 µM | 0.424 µM | 0.0951 µM | 0.395 µM | 0.297 µM | 0.268 µM | 0.186 µM | 0.28 µM | 0.247 µM | 0.328 µM
4 | O=C(/C=C/c1cccc(S(=O)(=O)Nc2ccccc2)c1)NO [Belinostat] | 1.49 µM | 1.77 µM | 1.7 µM | 1.19 µM | 0.8 µM | 0.415 µM | 0.924 µM | 0.61 µM | 0.459 µM | 0.704 µM | 0.364 µM | 0.762 µM | 0.321 µM | 0.718 µM | 0.259 µM
5 | CC(C)C[C@H](NC(=O)[C@H](Cc1ccccc1)NC(=O)c1cnccn1)B(O)O [Bortezomib] | 0.123 µM | 0.0226 µM | 0.0214 µM | 0.00894 µM | 0.00988 µM | 0.0112 µM | 0.0512 µM | 0.00347 µM | 0.00732 µM | 0.00664 µM | 0.0101 µM | 0.00587 µM | 0.0063 µM | 0.011 µM | 0.0101 µM
6 | COc1cc(Nc2c(C#N)cnc3cc(OCCCN4CCN(C)CC4)c(OC)cc23)c(Cl)cc1Cl [Bosutinib] | 3.31 µM | 3.33 µM | 3.25 µM | 3.2 µM | 2.41 µM | 2.95 µM | 3.43 µM | 1.6 µM | 1.7 µM | 1.14 µM | 1.41 µM | 1.49 µM | 1.46 µM | 1.27 µM | 2.59 µM
7 | Cc1cc2c(F)c(Oc3ncnn4cc(OC[C@@H](C)O)c(C)c34)ccc2[nH]1 [Brivanib] | > 1 µM | > 1 µM | > 1 µM | > 1 µM | > 1 µM | > 1 µM | > 1 µM | > 1 µM | > 1 µM | > 1 µM | > 1 µM | > 1 µM | > 1 µM | > 1 µM | > 1 µM
8 | Nc1cc(C(F)(F)F)c(-c2cc(N3CCOCC3)nc(N3CCOCC3)n2)cn1 [Buparlisib] | > 10 µM | 2.71 µM | 2.21 µM | 2.96 µM | 2.66 µM | 1.61 µM | 1.75 µM | 1.61 µM | 1.99 µM | 2.02 µM | 1.37 µM | 1.79 µM | 1.69 µM | 1.53 µM | 0.844 µM
9 | C#Cc1cccc(Nc2ncnc3cc(OC)c(OCCCCCCC(=O)NO)cc23)c1 [CUDC-101] | 1.85 µM | 1.13 µM | 0.984 µM | 1.81 µM | 1.27 µM | 2.5 µM | 0.699 µM | 0.438 µM | 0.47 µM | 0.545 µM | 0.909 µM | 0.732 µM | 0.801 µM | 1.82 µM | 0.159 µM
10 | C=CC(=O)Nc1cc2c(Nc3ccc(F)c(Cl)c3)ncnc2cc1OCCCN1CCOCC1 [Canertinib] | 2.42 µM | 2.16 µM | 2 µM | 2.41 µM | 2.97 µM | 2.7 µM | 2.44 µM | 2.53 µM | 1.61 µM | 2.03 µM | 1.56 µM | 2.78 µM | 1.87 µM | 2.22 µM | 3.18 µM
11 | CC(C)C[C@H](NC(=O)[C@H](CCc1ccccc1)NC(=O)CN1CCOCC1)C(=O)N[C@@H](Cc1ccccc1)C(=O)N[C@@H](CC(C)C)C(=O)[C@@]1(C)CO1 [Carfilzomib] | 0.0251 µM | 0.0246 µM | 0.023 µM | 0.0257 µM | 0.012 µM | 0.00879 µM | 0.0117 µM | 0.00275 µM | 0.0115 µM | 0.00967 µM | 0.0172 µM | 0.0045 µM | 0.00899 µM | 0.00828 µM | 0.00471 µM
12 | Nc1nc(Cl)nc2c1ncn2[C@@H]1O[C@H](CO)[C@@H](O)[C@@H]1F [Clofarabine] | 0.311 µM | 0.323 µM | 0.337 µM | 1.94 µM | 0.814 µM | 0.585 µM | 0.387 µM | 0.161 µM | 0.289 µM | 0.207 µM | 0.817 µM | 0.374 µM | 0.744 µM | 0.301 µM | 0.331 µM
13 | CCN(CC)CCOc1ccc(/C(=C(/Cl)c2ccccc2)c2ccccc2)cc1 [Clomifene] | 2.99 µM | > 10 µM | 2.03 µM | 3.54 µM | 2.56 µM | 2.84 µM | 2.29 µM | 3.36 µM | 1.14 µM | 2.44 µM | 2.47 µM | 2.45 µM | 2.54 µM | 2.52 µM | 3.93 µM
